Results: US10882860B2, “Treatment of osteoarthritis” (Samumed, LLC, priority 2015, dated 2021)

Columns and labels:
[1] = system: rat models of osteoarthritis (ACLT and pMMx); assay: Efficacy of suspension compositions compared to a solution composition in rat OA model; format: in vivo, rats
Method: The efficacy of suspension compositions of the compound of Formula (I) (Form 1) as compared to a solution composition of the compound of Formula (I) in rat models of osteoarthritis (OA) was determined using a solution (final IA dose of 3 μg solution) and 0.1 μg and 0.3 μg suspension compositions of the compound of Formula (I) (Form 1).
The rats were treated with final dose levels of either a 0.1 μg or 0.3 μg suspension or a 3 μg solution of the compound of Formula (I). Histology score of cartilage integrity in the knee was the readout.

[2] = system: subjects with moderately to severely symptomatic knee OA; assay: Initial clinical study (first cohort, single IA injection); format: in vivo, human; set-up: Change in cartilage thickness: unit not given here
Method: Twenty-one subjects were enrolled in the first cohort of a clinical trial for the treatment of osteoarthritis. All subjects completed a minimum of 12 weeks of follow-up after treatment. This study was a first-in-human, multicenter, placebo-controlled, single-dose, dose-escalation safety study in subjects suffering from moderately to severely symptomatic knee OA. Subjects were treated with a single ultrasound-guided intra-articular injection of a suspension of a non-stoichiometric hydrate of Form I having between 1% and about 20% by weight water or placebo.
A single-use injectable composition containing the compound of Formula (I) suspended in a 0.5% sodium carboxymethylcellulose and 0.05% polysorbate 80 in 10 mM phosphate buffered saline solution, pH 7.4, was prepared. For this study, a dosage of 0.03-0.230 mg of the compound of Formula (I) was administered per 2 mL injection.
Subjects were evaluated using the following primary and secondary assessments:
1. Evaluation of the safety and tolerability of the therapeutic composition administered by intra-articular injection into the target knee joint of moderately to severely symptomatic osteoarthritis (OA) subjects. This included:
a) monitoring for treatment-emergent adverse events (AEs);
b) assessing bone loss by measuring bone biomarkers (cartilage oligomeric matrix protein [COMP], N-terminal propeptides of procollagen type I [PINP], and β-C-terminal telopeptide [β-CTX]) at Weeks 4 and 12 by computed tomography (CT) of both knee joints and at Week 12 after study medication injection compared to baseline; and
c) assessing bone marrow edema by magnetic resonance imaging (MRI) at Week 12 compared to baseline.
2. Assessment of the pharmacokinetic (PK) behavior of the compound of Formula (I) under the conditions of this study at Days 1, 2, 4, and 12.
Estimation of clinical responses to treatment with the therapeutic composition, including:
a) change from baseline in pain visual analog scale (VAS) score assessed at Weeks 1, 2, 4, 8, and 12;
b) change from baseline in the Western Ontario and McMaster Universities Arthritis Index (WOMAC) assessed at Weeks 1, 2, 4, 8, and 12;
c) change from baseline OA pain as assessed by the WOMAC pain subscale at Weeks 1, 2, 4, 8, and 12;
d) change from baseline OA as assessed by the physician global assessment of disease activity at Weeks 1, 2, 4, 8, and 12;
e) change from baseline in total cartilage volume and thickness in the compartments of the target knee joint as documented by Mill at Week 12;
f) changes from baseline in anabolic or catabolic biomarkers indicative of cartilage synthesis or degradation (cartilage oligomeric matrix protein [COMP], N-terminal propeptides of procollagen type I [PINP], and β-C-terminal telopeptide [(3-CTX]) at Weeks 4 and 12;
g) change from baseline in plasma levels of cytokines related to inflammation (interleukin [IL] 1b, IL6, IL8, tumor necrosis factor (TNF), and interferon-alpha [IFNα]) at Weeks 4 and 12; and
h) change from baseline in bone marrow edema as documented by Mill scan of the target knee at baseline and at Week 12.

[3] = subject Treatment 1, Week 12 vs baseline
[4] = subject Treatment 2, Week 12 vs baseline
[5] = subject Treatment 3, Week 12 vs baseline
[6] = subject Treatment 4, Week 12 vs baseline

Structure (SMILES): CC(C)CC(=O)Nc1cncc(-c2ccc3[nH]nc(-c4nc5c(-c6cccc(F)c6)cncc5[nH]4)c3c2)c1 [compound of Formula (I)]
- histology score of cartilage integrity in the knee (vs. vehicle) ([1]; 0.1 μg suspension, 3 months, did not reach statistical significance): beneficial effect
- histology score of cartilage integrity in the knee (vs. vehicle) ([1]; 0.3 μg suspension, 3 months): significant difference
- histology score of cartilage integrity in the knee (vs. vehicle) ([1]; 3 μg solution, 2 months, did not reach statistical significance): beneficial effect
- Change in WOMAC score [2, 3]: −56
- Change in cartilage thickness [2, 3]: 1.2
- Week 12 cartilage thickness (mm) ([2]; subject Treatment 1, baseline 14.01): 15.21 mm
- Week 12 WOMAC score ([2]; subject Treatment 1, baseline 56): 0
- Change in WOMAC score [2, 4]: −30
- Change in cartilage thickness [2, 4]: 1.2
- Week 12 cartilage thickness (mm) ([2]; subject Treatment 2, baseline 12.12): 13.32 mm
- Week 12 WOMAC score ([2]; subject Treatment 2, baseline 51): 21
- Change in WOMAC score [2, 5]: −27
- Change in cartilage thickness [2, 5]: 1.3
- Week 12 cartilage thickness (mm) ([2]; subject Treatment 3, baseline 13.22): 14.52 mm
- Week 12 WOMAC score ([2]; subject Treatment 3, baseline 59): 32
- Change in WOMAC score [2, 6]: −38
- Change in cartilage thickness [2, 6]: 1.44
- Week 12 cartilage thickness (mm) ([2]; subject Treatment 4, baseline 9.89): 11.33 mm
- Week 12 WOMAC score ([2]; subject Treatment 4, baseline 61): 23
